Reference: publication PMC12620000, “Exploring the feasibility of protein phosphatase 1–docking motif-mimetic cell-penetrating peptides for modulating prostate carcinogenesis” (JNCI Cancer Spectrum, 2025)
Like-named read-outs stand apart in the source and are kept apart here. Where no end group is shown, it is not given here.

Key:
PC3 cells = type: cell-based; conditions: 24 h
Method: (§1) One mM peptide stocks were prepared as for fluorescent versions. Cells were grown to 60%-70% confluence in 96-well plates and treated with 1-20 μM peptides in RPMI-1640 (phenol red-free). After 24 or 48 hours at 37 °C, 5% CO2, PrestoBlue (1/10 dilution) was added for 30 minutes. Fluorescence (λAbs 560 nm/λEm 600 nm) was measured using an Infinite 200 PRO reader (Tecan). Each condition had 3-5 replicates, repeated in 3 independent experiments.
(§2) Figure 3. Synergistic reduction of prostate cancer cell viability by combined AR-BS peptides. […] B) Cells were treated with combinations of AR-BS peptides (5 or 10 μM of each peptide) for 24 hours to assess potential synergistic effects. Cell viability was evaluated using the PrestoBlue Cell Viability Reagent according to the manufacturer’s instructions. Percentage cell viability was calculated as the ratio between treatment and control conditions (cells without treatment). Results are expressed as mean (SD) percentage from 3 independent experiments with 5 replicates per condition. Statistical comparisons were performed using the Mann–Whitney U test. *P < .05. Abbreviations: AR-BS = androgen receptor–binding site; mitP = mitoparan.
(§3) Percentage cell viability was calculated from the ratio between treatment condition and control condition (cells with no treatment). Results are expressed as mean ± SD from three independent experiments with five replicates per condition.

LNCaP cells = type: cell-based; conditions: 24 h
Method: as §1, §2, §3

Row | Substance | Cell viability, Mean (PC3 cells; 5 μM) [%] | Cell viability, Mean (PC3 cells; 10 μM) [%] | Cell viability, Mean (PC3 cells; 20 μM) [%] | Cell viability, Mean (LNCaP cells; 5 μM) [%] | Cell viability, Mean (LNCaP cells; 10 μM) [%] | Cell viability, Mean (LNCaP cells; 20 μM) [%]
1 | GSCKVFFKRAAKGKQK-NH2 [AR-BS1] | 89 | 89 | 81 | 97 | 96 | 94
2 | KVKPIYFHTGRKKRRQRRRPPQ-NH2 [AR-BS3] | 79 | 88 | 84 | 91 | 94 | 99
3 | RQLVHVVKWAKKL-NH2 [AR-BS2] | 93 | 87 | 81 | 95 | 96 | 83
